Data taken from ChEMBL document CHEMBL4152300, “Discovery of the selective and efficacious inhibitors of FLT3 mutations” (Eur J Med Chem, 2018).

Experiments:
[1] = target: CDK2 (cyclin-dependent kinase 2) (Homo sapiens, UniProt P24941); experiment: Inhibition of CDK2 (unknown origin) assessed as residual activity at 0.123 uM by Hotspot assay relative to control; conditions: CDK2 enzyme (unknown origin), read-out: Activity
[2] = system: MV4-11; experiment: Growth inhibition of human MV4-11 cells harboring FLT3-ITD after 72 hrs by Cell-Titer Glo assay; type: functional, cell-based; conditions: MV4-11, 72 h
[3] = Drug uptake in human liver microsomes up to 60 mins by LC-MS/MS analysis; type: ADME, microsome; conditions: 1 h
[4] = target: Vascular endothelial growth factor receptor 1 (Homo sapiens, UniProt P17948); experiment: Inhibition of human FLT1 by Hotspot assay
Chain of Vascular endothelial growth factor receptor 1 (P17948 whole entry): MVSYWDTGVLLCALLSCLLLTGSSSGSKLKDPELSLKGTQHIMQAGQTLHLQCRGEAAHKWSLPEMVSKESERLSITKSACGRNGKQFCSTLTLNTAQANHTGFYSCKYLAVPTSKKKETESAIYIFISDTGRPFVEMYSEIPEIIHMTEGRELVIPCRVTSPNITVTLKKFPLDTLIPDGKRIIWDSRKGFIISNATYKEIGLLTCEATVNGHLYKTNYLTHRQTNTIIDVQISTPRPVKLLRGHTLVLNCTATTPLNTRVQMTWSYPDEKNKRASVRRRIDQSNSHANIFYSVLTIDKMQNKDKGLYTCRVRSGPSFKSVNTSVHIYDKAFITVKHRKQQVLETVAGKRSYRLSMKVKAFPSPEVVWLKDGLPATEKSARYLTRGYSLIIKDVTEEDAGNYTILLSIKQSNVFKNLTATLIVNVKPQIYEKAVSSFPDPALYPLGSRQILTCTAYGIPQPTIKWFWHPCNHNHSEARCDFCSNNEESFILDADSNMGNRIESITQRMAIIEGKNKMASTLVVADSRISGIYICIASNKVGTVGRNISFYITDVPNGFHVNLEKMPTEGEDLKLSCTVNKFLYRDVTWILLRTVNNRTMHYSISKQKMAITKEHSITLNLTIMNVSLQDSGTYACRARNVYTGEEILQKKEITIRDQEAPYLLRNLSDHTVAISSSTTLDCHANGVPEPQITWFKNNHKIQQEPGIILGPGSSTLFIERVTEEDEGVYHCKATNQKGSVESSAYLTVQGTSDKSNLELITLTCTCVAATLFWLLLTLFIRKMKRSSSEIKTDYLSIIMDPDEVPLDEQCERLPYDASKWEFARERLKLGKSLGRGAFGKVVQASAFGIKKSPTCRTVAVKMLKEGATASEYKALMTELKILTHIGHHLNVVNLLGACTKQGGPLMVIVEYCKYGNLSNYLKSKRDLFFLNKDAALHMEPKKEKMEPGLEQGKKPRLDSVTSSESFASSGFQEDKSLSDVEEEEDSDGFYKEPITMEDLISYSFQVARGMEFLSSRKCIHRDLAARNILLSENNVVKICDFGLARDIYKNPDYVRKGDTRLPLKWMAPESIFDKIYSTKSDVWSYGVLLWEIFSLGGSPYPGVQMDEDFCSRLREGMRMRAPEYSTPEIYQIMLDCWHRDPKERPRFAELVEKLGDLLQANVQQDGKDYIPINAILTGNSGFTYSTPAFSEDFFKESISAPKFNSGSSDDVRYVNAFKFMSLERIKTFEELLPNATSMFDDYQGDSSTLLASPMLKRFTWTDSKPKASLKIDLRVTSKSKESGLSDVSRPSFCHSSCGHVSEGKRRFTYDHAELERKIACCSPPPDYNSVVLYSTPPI

[5] = target: Mast/stem cell growth factor receptor Kit (Homo sapiens, UniProt P10721); experiment: Inhibition of human KIT at 0.123 uM by Hotspot assay
Chain of Mast/stem cell growth factor receptor Kit (P10721 whole entry): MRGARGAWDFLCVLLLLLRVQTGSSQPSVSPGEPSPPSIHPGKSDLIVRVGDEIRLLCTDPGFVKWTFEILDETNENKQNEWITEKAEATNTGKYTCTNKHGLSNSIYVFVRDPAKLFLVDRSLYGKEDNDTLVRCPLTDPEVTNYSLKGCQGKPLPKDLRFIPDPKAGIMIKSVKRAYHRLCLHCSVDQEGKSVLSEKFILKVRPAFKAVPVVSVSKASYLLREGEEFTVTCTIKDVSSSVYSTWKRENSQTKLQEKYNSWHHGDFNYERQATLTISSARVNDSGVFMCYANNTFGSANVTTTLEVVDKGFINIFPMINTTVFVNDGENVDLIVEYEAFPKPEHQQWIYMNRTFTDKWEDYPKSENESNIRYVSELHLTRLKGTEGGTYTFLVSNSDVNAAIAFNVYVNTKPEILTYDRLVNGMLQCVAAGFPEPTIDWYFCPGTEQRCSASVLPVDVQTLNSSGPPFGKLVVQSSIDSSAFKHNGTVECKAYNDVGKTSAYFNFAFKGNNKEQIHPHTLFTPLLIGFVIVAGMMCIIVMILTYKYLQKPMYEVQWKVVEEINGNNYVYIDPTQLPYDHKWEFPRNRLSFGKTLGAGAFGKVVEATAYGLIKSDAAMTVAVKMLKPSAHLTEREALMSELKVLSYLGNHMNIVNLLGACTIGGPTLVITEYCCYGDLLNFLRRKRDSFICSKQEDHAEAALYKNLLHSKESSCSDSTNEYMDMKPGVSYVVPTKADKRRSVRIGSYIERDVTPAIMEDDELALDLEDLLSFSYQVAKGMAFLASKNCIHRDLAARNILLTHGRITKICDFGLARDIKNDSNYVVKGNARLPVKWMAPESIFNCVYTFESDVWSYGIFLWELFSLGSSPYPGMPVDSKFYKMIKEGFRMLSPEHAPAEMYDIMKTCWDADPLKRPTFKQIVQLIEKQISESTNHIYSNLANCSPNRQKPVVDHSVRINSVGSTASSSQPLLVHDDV

[6] = target: Receptor-type tyrosine-protein kinase FLT3 (Homo sapiens, UniProt P36888, D835Y); experiment: Inhibition of human FLT3 D835Y mutant by Hotspot assay
[7] = target: T1, Receptor-type tyrosine-protein kinase FLT3 (Homo sapiens, UniProt P36888); experiment: Inhibition of human FLT3 F594_R595insR mutant by Hotspot assay
[8] = target: Receptor-type tyrosine-protein kinase FLT3 (Homo sapiens, UniProt P36888, D835V/ITD); experiment: Binding affinity to human FLT3 ITD/D835V double mutant expressed in bacterial expression system by Kinomescan method
[9] = system: HL-60; experiment: Growth inhibition of human HL60 cells expressing low levels of FLT3 after 72 hrs by Cell-Titer Glo assay; type: functional, cell-based; conditions: HL-60, 72 h
[10] = target: T1, Receptor-type tyrosine-protein kinase FLT3; experiment: Inhibition of FLT3 in human MV4-11 cells assessed as reduction in AKT phosphorylation at Ser473 residue after 4 hrs by Western blot analysis; type: cell-based
[11] = system: MV4-11; experiment: Induction of apoptosis in human MV4-11 cells assessed as necrotic cells at 0.2 uM after 24 hrs by Annexin V-FITC/propidium iodide staining based flow cytometry (reference value: 0%); type: functional
[12] = system: MV4-11; experiment: Induction of apoptosis in human MV4-11 cells assessed as early apoptotic cells at 0.5 uM after 24 hrs by Annexin V-FITC/propidium iodide staining based flow cytometry (reference value: 0%); type: functional

**Q.** Which results are given for `Cc1nc2c(c(Nc3c[nH]nc3C(=O)Nc3ccc(N4CCNCC4)cc3)n1)CCC2`?
**A.** activity at 0.123 µM [1]: 86.3%; IC50 [2]: 16 nM; Drug uptake [3]: 28.7%; IC50 [4]: 220 nM; inhibition (INH) [5]: Not Active; IC50 [6]: 1.79 nM; IC50 [7]: 6.97 nM; Kd [8]: 3.7 nM; IC50 [9]: 26700 nM; inhibition [10]: Dose-dependent effect; Activity [11]: 1.92%; Activity [12]: 60.4%
